# Test results: US10227344B2, “CK2 inhibitors, compositions and methods thereof” (Polaris Pharmaceuticals, Inc., priority 2016, dated 2019)
# Where a name gives a salt, the structure may show the parent alone.
# Columns and labels:
# purified CK2α enzyme = purified CK2α enzyme (Homo sapiens, UniProt P68400); test: CK2 Protein Kinase Inhibition Assay (coupled PK/LDH assay); assay type: biochemical; settings: CK2 enzyme 25 nM, 100 μM ATP, 37° C., Morrison equation
# Method: A coupled PK (pyruvate kinase)/LDH (lactate dehydrogenase) assay was used to measure compounds' ability to inhibit purified CK2α enzyme.
# The ADP product of kinase CK2a is the cofactor for PK. Phospho(enol)pyruvate (PEP) PEP is metabolized by pyruvate kinase to yield pyruvate, which is the substrate for LDH.
# Serially diluted compounds were pre-incubated for 10 min at 37° C. with and 1.5 mM […] peptide substrate, 6 U/ml PK and 10 U/ml LDH (purchased from Sigma-Aldrich), 100 μM ATP, 1.2 mM NADH, 4 mM PEP in the reaction buffer (50 mM Tris (pH 8.25), 0.1 M NaCl, 10 mM magnesium acetate). The reaction was initiated by the addition of an equal volume of purified CK2 enzyme (final concentration 25 nM) diluted in the reaction buffer. Absorbance at 340 nm was measured overtime (for 30 min) at 37° C.; as NADH was converted to NAD+ the absorbance decreases. Absorbance decrease rate (per min) was plotted against the compound concentration and Ki is determined by GraphPad Prism using Morrison equation. All data points were performed in triplicate and each compound was tested in at least two separate experiments.
# To this end, K, values of less than 2.5 nM are labelled as “+++”, from 2.5 nM to 10 nM are labelled as “++”, and greater than 10 nM are labelled as “+”.
# Sequence of purified CK2α enzyme (P68400 whole entry): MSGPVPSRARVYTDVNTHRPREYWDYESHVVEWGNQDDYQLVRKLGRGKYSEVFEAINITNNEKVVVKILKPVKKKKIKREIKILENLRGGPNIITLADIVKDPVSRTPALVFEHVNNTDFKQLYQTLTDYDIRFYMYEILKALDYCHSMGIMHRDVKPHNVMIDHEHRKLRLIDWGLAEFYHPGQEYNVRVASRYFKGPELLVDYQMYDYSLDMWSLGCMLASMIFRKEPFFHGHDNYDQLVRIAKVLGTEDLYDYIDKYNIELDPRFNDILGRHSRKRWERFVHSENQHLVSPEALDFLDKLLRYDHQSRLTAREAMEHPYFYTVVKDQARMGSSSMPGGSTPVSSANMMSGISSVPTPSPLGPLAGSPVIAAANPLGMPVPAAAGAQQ
Compound,melting point,Ki (purified CK2α enzyme)
"CN(CCN)c1ccc(Nc2cc(NC3CC3)c3ncc(C#N)n3n2)cc1CS(C)(=O)=O (as salt: trifluoroacetic acid salt) [Example 48, 6-((4-((2-aminoethyl)(methyl)amino)-3-((methylsulfonyl)methyl)phenyl)amino)-8-(cyclopropylamino)imidazo[1,2-b]pyridazine-3-carbonitrile mono trifluoroacetic acid salt]",121 to 124 °C,
"CN(CCN)c1ccc(Nc2nc(NC3CC3)c3ncc(C#N)n3n2)cc1CS(C)(=O)=O (as salt: trifluoroacetic acid salt) [Example 50, 2-((4-((2-aminoethyl)(methyl)amino)-3-((methylsulfonyl)methyl)phenyl)amino)-4-(cyclopropylamino)imidazo[2,1-f][1,2,4]triazine-7-carbonitrile mono trifluoroacetic acid salt]",113 to 117 °C,
"CN(CCN)c1ccc(Nc2nc(NC3CC3)n3ncc(C#N)c3n2)cc1CS(C)(=O)=O (as salt: trifluoroacetic acid salt) [Example 52, 2-((4-((2-aminoethyl)(methyl)amino)-3-((methylsulfonyl)methyl)phenyl)amino)-4-(cyclopropylamino)pyrazolo[1,5-a][1,3,5]triazine-8-carbonitrile mono trifluoroacetic acid salt]",55 to 59 °C,
"CN(CCN)c1ccc(Nc2cc(NC3CC3)c3ncc(C#N)n3n2)cc1C[S+](C)[O-] (racemic) (as salt: trifluoroacetic acid salt) [Example 47, (±)-6-((4-((2-Aminoethyl)(methyl)amino)-3-((methylsulfinyl)methyl)phenyl)amino)-8-(cyclopropylamino)imidazo[1,2-b]pyridazine-3-carbonitrile mono trifluoroacetic acid salt]",91 to 94 °C,
"CN(CCN)c1ccc(Nc2nc(NC3CC3)c3ncc(C#N)n3n2)cc1C[S+](C)[O-] (racemic) (as salt: trifluoroacetic acid salt) [Example 49, (±)-2-((4-((2-aminoethyl)(methyl)amino)-3-((methylsulfinyl)methyl)phenyl)amino)-4-(cyclopropylamino)imidazo[2,1-f][1,2,4]triazine-7-carbonitrile mono trifluoroacetic acid salt]",93 to 97 °C,
"CN(CCN)c1ccc(Nc2nc(NC3CC3)n3ncc(C#N)c3n2)cc1C[S+](C)[O-] (racemic) (as salt: trifluoroacetic acid salt) [Example 51, (±)-2-((4-((2-aminoethyl)(methyl)amino)-3-((methylsulfinyl)methyl)phenyl)amino)-4-(cyclopropylamino)pyrazolo[1,5-a][1,3,5]triazine-8-carbonitrile mono trifluoroacetic acid salt]",78 to 82 °C,
"C[S+]([O-])Cc1cc(Nc2cc(NC3CC3)n3ncc(C#N)c3n2)ccc1C1CCCNC1 (racemic) (as salt: trifluoroacetic acid salt) [Example 61, (±)-7-(Cyclopropylamino)-5-((3-((methylsulfinyl)methyl)-4-((R,S)-piperidin-3-yl)phenyl)amino)pyrazolo[1,5-a]pyrimidine-3-carbonitrile mono trifluoroacetic acid salt]",55 to 59 °C,
"C[S+]([O-])Cc1cc(Nc2cc(NC3CC3)n3ncc(C#N)c3n2)ccc1C1=CCNC1 (racemic) (as salt: trifluoroacetic acid salt) [Example 62, (±)-7-(Cyclopropylamino)-5-((4-(2,5-dihydro-1H-pyrrol-3-yl)-3-((methylsulfinyl)methyl)phenyl)amino)pyrazolo[1,5-a]pyrimidine-3-carbonitrile mono trifluoroacetic acid salt]",147 to 151 °C,
"CN(CCN)c1ccc(Nc2cc(NC3CC3)c3ncc(C#N)n3n2)cc1CS(C)(=O)=O [Example 48, 6-((4-((2-aminoethyl)(methyl)amino)-3-((methylsulfonyl)methyl)phenyl)amino)-8-(cyclopropylamino)imidazo[1,2-b]pyridazine-3-carbonitrile mono trifluoroacetic acid salt]",,2.5 to 10 nM
"CN(CCN)c1ccc(Nc2nc(NC3CC3)c3ncc(C#N)n3n2)cc1CS(C)(=O)=O [Example 50, 2-((4-((2-aminoethyl)(methyl)amino)-3-((methylsulfonyl)methyl)phenyl)amino)-4-(cyclopropylamino)imidazo[2,1-f][1,2,4]triazine-7-carbonitrile mono trifluoroacetic acid salt]",,2.5 to 10 nM

# Second part, the molecule after the results:
melting point,Ki (purified CK2α enzyme),Compound
185 to 189 °C,,"CN(CC1(N)CC1)c1ccc(Nc2cc(NC3CC3)n3ncc(C#N)c3n2)cc1CS(C)(=O)=O (as salt: trifluoroacetic acid salt) [Example 66, 5-((4-(((1-aminocyclopropyl)methyl)(methyl)amino)-3-((methylsulfonyl)methyl)phenyl)amino)-7-(cyclopropylamino)pyrazolo[1,5-a]pyrimidine-3-carbonitrile mono trifluoroacetic acid salt]"
161 to 165 °C,,"CC(N)c1ccc(Nc2cc(NC3CC3)n3ncc(C#N)c3n2)cc1C[S+](C)[O-] (racemic) (as salt: trifluoroacetic acid salt) [Example 58, (±)-5-((4-((R,S)-1-Aminoethyl)-3-((methylsulfinyl)methyl)phenyl)amino)-7-(cyclopropylamino)pyrazolo[1,5-a]pyrimidine-3-carbonitrile mono trifluoroacetic acid salt]"
185 to 189 °C,,"C[S+]([O-])Cc1cc(Nc2cc(NC3CC3)n3ncc(C#N)c3n2)ccc1C1(N)CC1 (racemic) (as salt: trifluoroacetic acid salt) [Example 59, (±)-5-((4-(1-Aminocyclopropyl)-3-((methylsulfinyl)methyl)phenyl)amino)-7-(cyclopropylamino)pyrazolo[1,5-a]pyrimidine-3-carbonitrile mono trifluoroacetic acid salt]"
249 to 253 °C,,"C/C(=C\CN)c1ccc(Nc2cc(NC3CC3)n3ncc(C#N)c3n2)cc1C[S+](C)[O-] (racemic) (as salt: trifluoroacetic acid salt) [Example 60, (±)-(E)-5-((4-(4-aminobut-2-en-2-yl)-3-((methylsulfinyl)methyl)phenyl)amino)-7-(cyclopropylamino)pyrazolo[1,5-a]pyrimidine-3-carbonitrile mono trifluoroacetic acid salt]"
173 to 177 °C,,"C[S+]([O-])Cc1cc(Nc2cc(NC3CC3)n3ncc(C#N)c3n2)ccc1C1CCNC1 (racemic) (as salt: trifluoroacetic acid salt) [Example 63, (±)-7-(Cyclopropylamino)-5-((3-((methylsulfinyl)methyl)-4-((R,S)-pyrrolidin-3-yl)phenyl)amino)pyrazolo[1,5-a]pyrimidine-3-carbonitrile mono trifluoroacetic acid salt]"
,< 2.5 nM,"CS(=O)(=O)Cc1cc(Nc2cc(NC3CC3)n3ncc(C#N)c3n2)ccc1C1(CN)CC1 [Example 39, 5-((4-(1-(Aminomethyl)cyclopropyl)-3-((methylsulfonyl)methyl)phenyl)amino)-7-(cyclopropylamino)pyrazolo[1,5-a]pyrimidine-3-carbonitrile mono trifluoroacetic acid salt]"
,2.5 to 10 nM,"CS(=O)(=O)Cc1cc(Nc2cc(NC3CC3)n3ncc(C#N)c3n2)ccc1N1CC(N)C1 [Example 41, 5-((4-(3-Aminoazetidin-1-yl)-3-((methylsulfonyl)methyl)phenyl)amino)-7-(cyclopropylamino)pyrazolo[1,5-a]pyrimidine-3-carbonitrile]"
,< 2.5 nM,"CS(=O)(=O)Cc1cc(Nc2cc(NC3CC3)n3ncc(C#N)c3n2)ccc1N1CC(CN)C1 [Example 43, 5-((4-(3-(Aminomethyl)azetidin-1-yl)-3-((methylsulfonyl)methyl)phenyl)amino)-7-(cyclopropylamino)pyrazolo[1,5-a]pyrimidine-3-carbonitrile]"
,2.5 to 10 nM,"CN(c1ccc(Nc2cc(NC3CC3)n3ncc(C#N)c3n2)cc1CS(C)(=O)=O)C1CNC1 [Example 45, 5-((4-(Azetidin-3-yl(methyl)amino)-3-((methylsulfonyl)methyl)phenyl)amino)-7-(cyclopropylamino)pyrazolo[1,5-a]pyrimidine-3-carbonitrile]"
,2.5 to 10 nM,"CN(CCN)c1ccc(Nc2nc(NC3CC3)n3ncc(C#N)c3n2)cc1CS(C)(=O)=O [Example 52, 2-((4-((2-aminoethyl)(methyl)amino)-3-((methylsulfonyl)methyl)phenyl)amino)-4-(cyclopropylamino)pyrazolo[1,5-a][1,3,5]triazine-8-carbonitrile mono trifluoroacetic acid salt]"
,< 2.5 nM,"CN(CC1(N)CC1)c1ccc(Nc2cc(NC3CC3)n3ncc(C#N)c3n2)cc1CS(C)(=O)=O [Example 66, 5-((4-(((1-aminocyclopropyl)methyl)(methyl)amino)-3-((methylsulfonyl)methyl)phenyl)amino)-7-(cyclopropylamino)pyrazolo[1,5-a]pyrimidine-3-carbonitrile mono trifluoroacetic acid salt]"
